Test results from patent US10610520B2, “Heterocyclic compound” (Takeda Pharmaceutical Company Limited, priority 2016, dated 2020).

Experiments:
[1] = system: intracerebral 2-AG and arachidonic acid; assay: Measurement of intracerebral 2-AG and arachidonic acid concentrations after oral administration; format: in vivo, C57BL/6J mice; details: for 2-AG concentration / arachidonic acid concentration: cerebrum, male C57BL/6J mice, 3 mg/kg by gavage; for 2-AG concentration: control 9.9; for arachidonic acid concentration: control 163.5; for migration into brain: oral administration to C57BL/6J mice, 3 mg/kg
Description: As the mouse, 8-week-old male C57BL/6J mice (CLEA Japan, Inc.) were used (6 mice/group). Administration solutions were prepared by suspending the test compounds (compound 1 (compound of Example 279), compound 2 (compound of Example 361) and compound 3 (compound of Example 362)) in 0.5% methylcellulose solution (Wako Pure Chemical Industries, Ltd.). The dose of the test compound was prepared to be 3 mg/kg body weight/10 mL. The test compounds were administered by gavage at 3 mg/kg body weight. The cerebrum was isolated after the administration of the test compound (isolation time after the administration of the test compound is shown in Table 3), and the cerebrum hemisphere was extracted. The obtained cerebrum hemisphere was frozen on dry ice, and the frozen tissue weight was measured.
The cerebral tissue weight was measured, and cerebral tissue was homogenized with 4-fold (v/w) of isopropanol (IPA), and double diluted with IPA. To the diluted sample (200 μL) was added internal standard solution (5 μL) ([5,6,8,9,11,12,14,15-D8]-(5Z,8Z,11Z,14Z)5,8,11,14-eicosatetraenoic acid (AA-d8, 0.5 nmol/mL IPA) and [5,6,8,9,11,12,14,15-D8]-(5Z,8Z,11Z,14Z)-5,8,11,14-eicosatetraenoyl-2-glycerol ester (2-AG-d3, 0.5 nmol/mL IPA)), and the mixture was centrifuged at 15000 rpm for 5 min. The supernatant was injected to liquid chromatography mass spectrometer to perform quantitative analysis.
For liquid chromatography, Shimadzu LC20A system (Shimadzu Corporation) was used. The separation was performed by gradient elution method with mobile phase A (10 mmol/L HCOONH4/HCOOH (100:0.2, v/v)) and mobile phase B (ethanol/IPA (3:2, v/v)) using Shim-pack XR-ODS (2.2 μm, 2.0×30 mm, Shimadzu Corporation) at column temperature of 50° C., at flow rate of 0.5 mL/min. The gradient conditions are as follows: 0-1 min, 1% B; 1-1.2 min, 1-55% B; 1.2-2.7 min, 55-75% B; 2.7-3.5 min, 75-99% B; 3.5-6 min, 99% B; 6-8 min, 1% B.
For mass spectrometer, API5000 (AB SCIEX) was used. The eluate from the liquid chromatography was directly ionized by turbospray ionization method, where (5Z,8Z,11Z,14Z)5,8,11,14-eicosatetraenoic acid (AA) and AA-d8 were measured by negative ionization mode, and (5Z,8Z,11Z,14Z)5,8,11,14-eicosatetraenoyl-2-glycerol ester (2-AG) and 2-AG-d3 were measured by positive ionization mode.
A solution for calibration curve was prepared to the concentration of 2, 5, 10, 20, 50, 100, 200, 500, 1000 nmol/mL of acetonitrile. These solutions (10 μL) was mixed with 200 μL of IPA and 5 μL of internal standard solution, and the mixture was centrifuged at 15000 rpm for 5 min, and the supernatant was injected to liquid chromatography mass spectrometer to perform analysis. The calibration curve was drawn by regression line with a weighting of 1/x^2, and the quantitativity was confirmed by accuracy of 100±20% and R^2>0.99.

[2] = target: T1, His-hMAGL (recombinant polyhistidine tagged human MAGL protein) (Homo sapiens, UniProt Q99685); assay: Measurement of MAGL inhibitory activity (arachidonic acid production from 2-arachidonylglycerol, RapidFire-mass spectrometry); format: biochemical; details: MAGL inhibitory rate, test compound 10 μM, 60 min preincubation, 2-arachidonylglycerol substrate
T1 construct: made in house; host or cells: E. coli BL21(DE3)
T1 sequence (Q99685 1-303): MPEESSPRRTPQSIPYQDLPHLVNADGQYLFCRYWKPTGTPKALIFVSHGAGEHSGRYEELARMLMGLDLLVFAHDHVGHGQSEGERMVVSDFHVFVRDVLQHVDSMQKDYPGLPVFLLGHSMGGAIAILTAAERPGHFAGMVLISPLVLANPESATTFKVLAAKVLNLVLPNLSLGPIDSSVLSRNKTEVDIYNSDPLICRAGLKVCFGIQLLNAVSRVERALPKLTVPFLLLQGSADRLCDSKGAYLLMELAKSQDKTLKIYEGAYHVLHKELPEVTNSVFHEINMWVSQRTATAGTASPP
Outline: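 Arachidonic acid formed was quantified by online solid-phase extraction and triple-quadrupole MS in negative SRM mode against a d8 internal standard. Reaction: recombinant His-hMAGL (7.5 ng/mL, pH 7.5 Tris buffer with Triton X-100 and BSA) plus 2-AG (5 μL of 150 μM stock) for 10 min at room temperature, quenched with 2% formic acid. Percent inhibition corrected for enzyme-free background.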

[3] = isolation 1 hour after administration
[4] = isolation 2 hour after administration

Row | SMILES | inhibition at 10 µM [2] [%] | also measured
1 | O=C1NC2(CO1)CN(C(=O)c1sc3cc(F)cc(F)c3c1Cl)C2 [compound 3, 2-((3-chloro-4,6-difluoro-1-benzothiophen-2-yl)carbonyl)-7-oxa-2,5-diazaspiro[3.4]octan-6-one] |  | 2-AG concentration [1, 3]: 25.7 nmol/g; arachidonic acid concentration [1, 3]: 156.1 nmol/g; migration into brain [1]: migrated into brain
2 | O=C1NC2(CO1)CN(C(=O)c1sc3c(F)c(OC(F)(F)F)ccc3c1Cl)C2 [compound 1, 2-((3-chloro-7-fluoro-6-(trifluoromethoxy)-1-benzothiophen-2-yl)carbonyl)-7-oxa-2,5-diazaspiro[3.4]octan-6-one] |  | 2-AG concentration [1, 4]: 73.2 nmol/g; arachidonic acid concentration [1, 4]: 109.4 nmol/g; migration into brain [1]: migrated into brain
3 | O=C1NC2(CO1)CN(C(=O)c1sc3cc(F)ccc3c1Cl)C2 [compound 2, 2-((3-chloro-6-fluoro-1-benzothiophen-2-yl)carbonyl)-7-oxa-2,5-diazaspiro[3.4]octan-6-one] |  | 2-AG concentration [1, 3]: 30.2 nmol/g; arachidonic acid concentration [1, 3]: 151.8 nmol/g; migration into brain [1]: migrated into brain
4 | O=C1CCC2(CN(C(=O)c3sc4cc(-c5ccc(F)cc5F)ccc4c3Cl)C2)N1 [Example 39, 2-((3-chloro-6-(2,4-difluorophenyl)-1-benzothiophen-2-yl)carbonyl)-2,5-diazaspiro[3.4]octan-6-one] | 101 | 
5 | O=C1CCC2(CN(C(=O)c3sc4cc(-c5ccc(C(F)F)cc5)ccc4c3Cl)C2)N1 [Example 219, 2-((3-chloro-6-(4-(difluoromethyl)phenyl)-1-benzothiophen-2-yl)carbonyl)-2,5-diazaspiro[3.4]octan-6-one] | 94 | 
6 | O=C1NC2(CO1)CN(C(=O)[C@H]1C[C@H](OCc3ccc(C(F)(F)F)cc3Cl)C1)C2 [Example 350, 2-((trans-3-((2-chloro-4-(trifluoromethyl)benzyl)oxy)cyclobutyl)carbonyl)-7-oxa-2,5-diazaspiro[3.4]octan-6-one] | 100 | 
7 | O=C1CCC2(CN(C(=O)c3cc4cc(-c5ccc(Cl)cc5)ccc4s3)C2)N1 [Example 150, 2-((5-(4-chlorophenyl)-1-benzothiophen-2-yl)carbonyl)-2,5-diazaspiro[3.4]octan-6-one] | 83 | 
8 | O=C1CCC2(CN(C(=O)c3ccc(-c4ccc(F)c(C(F)(F)F)c4)cc3)C2)N1 [Example 50, 2-((4′-fluoro-3′-(trifluoromethyl)biphenyl-4-yl)carbonyl)-2,5-diazaspiro[3.4]octan-6-one] | 98 | 
9 | O=C1NC2(CO1)CN(C(=O)c1sc3cc(OCC(F)(F)F)ccc3c1Cl)C2 [Example 287, 2-((3-chloro-6-(2,2,2-trifluoroethoxy)-1-benzothiophen-2-yl)carbonyl)-7-oxa-2,5-diazaspiro[3.4]octan-6-one] | 101 | 
10 | O=C1NC2(CCN(C(=O)c3sc4cc(Cl)cc(Cl)c4c3Cl)C2)CO1 (stereo not drawn) [Example 325, 7-((3,4,6-trichloro-1-benzothiophen-2-yl)carbonyl)-3-oxa-1,7-diazaspiro[4.4]nonan-2-one] | 80 | 
11 | O=C1CCC2(CN(C(=O)N3CCC(Cc4ccccc4Cl)CC3)C2)N1 [Example 101, 2-((4-(2-chlorobenzyl)piperidin-1-yl)carbonyl)-2,5-diazaspiro[3.4]octan-6-one] | 99 | 
12 | O=C1NC2(CO1)CN(C(=O)c1sc3cc(Cl)cc(Cl)c3c1Cl)C2 [Example 308, 2-((3,4,6-trichloro-1-benzothiophen-2-yl)carbonyl)-7-oxa-2,5-diazaspiro[3.4]octan-6-one] | 101 | 
